Values of other authors in patent US20220016082A1, “COMBINATION THERAPIES FOR HIGH AND VERY HIGH RISK MDS” (MEI Pharma, Inc., priority 2018, published 2022).

Experiments:
[1] = tested on: Higher-Risk Myelodysplastic Syndromes and Chronic Myelomonocytic Leukemia; conditions: arms N = 92 / 93 / 92; total N = 277
MDS = conditions: N = 179

Nc1ncn([C@@H]2O[C@H](CO)[C@@H](O)[C@H]2O)c(=O)n1 [AZA Monotherapy, 5-azacytidine]
CR (of CR/PR/HI) [1]: 24%
HI (of CR/PR/HI) [1]: 14%
Marrow CR [1]: 12%
ORR = CR + PR + mCR [1]: 38%
PR (of CR/PR/HI) [1]: 0%
CR (of CR + PR) (MDS): 17%
CR + PR (MDS): 29%
HI (MDS): 49%
PR (of CR + PR) (MDS): 12%
